# Reference: ChEMBL document CHEMBL1697731, “Cheminformatics analysis of assertions mined from literature that describe drug-induced liver injury in different species” (Chem Res Toxicol, 2010)
# Assays:
# Hepatotoxicity [1] = assay: Literature-mined compound from Fourches et al multi-species drug-induced liver injury (DILI) dataset, effect in non-rodents
# Hepatotoxicity [2] = assay: Literature-mined compound from Fourches et al multi-species drug-induced liver injury (DILI) dataset, effect in rodents; conditions: rodentia
# Hepatotoxicity [3] = assay: Literature-mined compound from Fourches et al multi-species drug-induced liver injury (DILI) dataset, effect in humans; conditions: human
Structure (SMILES),Hepatotoxicity (Hepatotoxicity [1]),Hepatotoxicity (Hepatotoxicity [2]),Hepatotoxicity (Hepatotoxicity [3]),Hepatotoxicity (Hepatotoxicity [1]; Liver),Hepatotoxicity (Hepatotoxicity [2]; Liver),Hepatotoxicity (Hepatotoxicity [3]; Liver)
O=C(CCCCC(=O)Nc1c(I)cc(I)c(C(=O)O)c1I)Nc1c(I)cc(I)c(C(=O)O)c1I [IODIPAMIDE],drug-induced liver injury reported,drug-induced liver injury reported,no drug-induced liver injury reported,–,–,–
O=[N+]([O-])OCC(CO[N+](=O)[O-])O[N+](=O)[O-] [NITROGLYCERIN],no drug-induced liver injury reported,drug-induced liver injury reported,drug-induced liver injury reported,–,–,–
Nc1ccc(O)c(C(=O)O)c1 [MESALAMINE],no drug-induced liver injury reported,drug-induced liver injury reported,drug-induced liver injury reported,–,–,–
OC[C@H]1OC(O)[C@H](O)[C@@H](O)[C@@H]1O (some centres undefined) [DEXTROSE],drug-induced liver injury reported,drug-induced liver injury reported,drug-induced liver injury reported,–,–,–
CCOC(=O)c1ncn2c1CN(C)C(=O)c1cc(F)ccc1-2 [FLUMAZENIL],no drug-induced liver injury reported,no drug-induced liver injury reported,drug-induced liver injury reported,–,–,–
Cl.Cl.NCCc1c[nH]cn1 [HISTAMINE DIHYDROCHLORIDE],–,–,–,no drug-induced liver injury reported,drug-induced liver injury reported,no drug-induced liver injury reported
"C[C@H](N)[C@H](O)c1ccccc1 [(1R,2S)-PHENYLPROPANOLAMINE]",no drug-induced liver injury reported,drug-induced liver injury reported,no drug-induced liver injury reported,–,–,–
CCCc1cc(=O)[nH]c(=S)[nH]1 [PROPYLTHIOURACIL],–,–,–,no drug-induced liver injury reported,drug-induced liver injury reported,drug-induced liver injury reported
Cc1ncc(COP(=O)(O)O)c(C=O)c1O [PYRIDOXAL PHOSPHATE ANHYDROUS],no drug-induced liver injury reported,drug-induced liver injury reported,no drug-induced liver injury reported,–,–,–
CC1(C)S[C@@H]2[C@H](NC(=O)[C@H](N)c3ccc(O)cc3)C(=O)N2[C@H]1C(=O)O.O=C([O-])[C@H]1/C(=C/CO)O[C@@H]2CC(=O)N21.[K+] [AMOXICILLIN/CLAVULANIC ACID],no drug-induced liver injury reported,no drug-induced liver injury reported,drug-induced liver injury reported,–,–,–
Cn1cnc([N+](=O)[O-])c1Sc1ncnc2nc[nH]c12 [AZATHIOPRINE],–,–,–,no drug-induced liver injury reported,drug-induced liver injury reported,drug-induced liver injury reported
COc1cc(NS(=O)(=O)c2ccc(N)cc2)nc(OC)n1 [SULFADIMETHOXINE],no drug-induced liver injury reported,no drug-induced liver injury reported,drug-induced liver injury reported,–,–,–
CN/C(=N/CCSCc1nc[nH]c1C)NC#N [CIMETIDINE],–,–,–,drug-induced liver injury reported,drug-induced liver injury reported,drug-induced liver injury reported
OCCN1CCN(CCCN2c3ccccc3Sc3ccc(Cl)cc32)CC1 [PERPHENAZINE],no drug-induced liver injury reported,drug-induced liver injury reported,no drug-induced liver injury reported,–,–,–
C[C@H](N)Cc1ccccc1 [DEXTROAMPHETAMINE],no drug-induced liver injury reported,drug-induced liver injury reported,no drug-induced liver injury reported,–,–,–
CN1C(C(=O)Nc2ccccn2)=C(O)c2sccc2S1(=O)=O [TENOXICAM],–,–,–,no drug-induced liver injury reported,no drug-induced liver injury reported,drug-induced liver injury reported
CC1(C)S[C@@H]2[C@H](NC(=O)C(C(=O)[O-])c3ccccc3)C(=O)N2[C@H]1C(=O)[O-].[Na+].[Na+] (some centres undefined) [CARBENICILLIN DISODIUM],no drug-induced liver injury reported,no drug-induced liver injury reported,drug-induced liver injury reported,–,–,–
CCCCCCCCCCCCS[C@H](C(=O)Nc1cc(C)c(O)c(C)c1C)c1ccccc1 [EFLUCIMIBE],drug-induced liver injury reported,no drug-induced liver injury reported,no drug-induced liver injury reported,–,–,–
O=C[C@H](O)[C@@H](O)[C@H](O)[C@H](O)CO[C@H]1O[C@H](CO[C@H]2O[C@H](CO)[C@@H](O)[C@H](O)[C@H]2O)[C@@H](O)[C@H](O)[C@H]1O [DEXTRAN],drug-induced liver injury reported,drug-induced liver injury reported,no drug-induced liver injury reported,–,–,–

Structure (SMILES),Hepatotoxicity (Hepatotoxicity [1]),Hepatotoxicity (Hepatotoxicity [2]),Hepatotoxicity (Hepatotoxicity [3]),Hepatotoxicity (Hepatotoxicity [1]; Liver),Hepatotoxicity (Hepatotoxicity [2]; Liver),Hepatotoxicity (Hepatotoxicity [3]; Liver)
CC1=C(/C=C/C(C)=C/C=C/C(C)=C/CO)C(C)(C)CCC1 [RETINOL],–,–,–,drug-induced liver injury reported,drug-induced liver injury reported,drug-induced liver injury reported
C#CC1(O)CCC2C3CCC4=CC(=O)CCC4C3C(=C)CC21CC (centres undefined) [IMPLANON],no drug-induced liver injury reported,no drug-induced liver injury reported,drug-induced liver injury reported,–,–,–
O=C(O)C(S)C(S)C(=O)O (centres undefined),no drug-induced liver injury reported,drug-induced liver injury reported,drug-induced liver injury reported,–,–,–
COCc1c(C(C)C)nc(C(C)C)c(/C=C/[C@@H](O)C[C@@H](O)CC(=O)O)c1-c1ccc(F)cc1 [CERIVASTATIN],drug-induced liver injury reported,drug-induced liver injury reported,drug-induced liver injury reported,–,–,–
CC(NC(C)(C)C)C(=O)c1cccc(Cl)c1 (centres undefined) [BUPROPION],no drug-induced liver injury reported,no drug-induced liver injury reported,drug-induced liver injury reported,–,–,–
CC(C(=O)O)c1ccc(C(=O)c2cccs2)cc1 (centres undefined) [SUPROFEN],no drug-induced liver injury reported,no drug-induced liver injury reported,drug-induced liver injury reported,–,–,–
CC(=O)OCC[N+](C)(C)C [ACETYLCHOLINE],–,–,–,drug-induced liver injury reported,drug-induced liver injury reported,no drug-induced liver injury reported
O=S(=O)([O-])CCS.[Na+] [MESNA],no drug-induced liver injury reported,drug-induced liver injury reported,no drug-induced liver injury reported,–,–,–
CCCCOCN(C(=O)CCl)c1c(CC)cccc1CC [BUTACHLOR],no drug-induced liver injury reported,drug-induced liver injury reported,no drug-induced liver injury reported,–,–,–
CCN[C@@H](C)Cc1cccc(C(F)(F)F)c1 [DEXFENFLURAMINE],no drug-induced liver injury reported,drug-induced liver injury reported,drug-induced liver injury reported,–,–,–
NC(=O)c1csc([C@@H]2O[C@H](CO)[C@@H](O)[C@H]2O)n1 [TIAZOFURIN],no drug-induced liver injury reported,drug-induced liver injury reported,no drug-induced liver injury reported,–,–,–
C=C1/C(=C\C=C2/CCC[C@]3(C)[C@@H]([C@H](C)CCCC(C)C)CC[C@@H]23)C[C@@H](O)C[C@@H]1O [ALFACALCIDOL],no drug-induced liver injury reported,no drug-induced liver injury reported,drug-induced liver injury reported,–,–,–
CC1(C)C2CCC1(CS(=O)(=O)[O-])C(=O)C2.O=C1N(Cc2ccccc2)C2C[S+]3CCCC3C2N1Cc1ccccc1 (centres undefined) [TRIMETHAPHAN CAMSYLATE],drug-induced liver injury reported,no drug-induced liver injury reported,no drug-induced liver injury reported,–,–,–
Cc1c(N(C)C)c(=O)n(-c2ccccc2)n1C [AMINOPYRINE],no drug-induced liver injury reported,drug-induced liver injury reported,drug-induced liver injury reported,–,–,–
CC(C)(Oc1ccc(C2CC2(Cl)Cl)cc1)C(=O)O (centres undefined) [CIPROFIBRATE],drug-induced liver injury reported,drug-induced liver injury reported,drug-induced liver injury reported,–,–,–
CC(C)(C)NCC(O)COc1cccc2c1CC(O)C(O)C2 (centres undefined) [NADOLOL],no drug-induced liver injury reported,no drug-induced liver injury reported,drug-induced liver injury reported,–,–,–
Nc1ccc(S(=O)(=O)Nc2ccnn2-c2ccccc2)cc1 [SULFAPHENAZOLE],no drug-induced liver injury reported,drug-induced liver injury reported,drug-induced liver injury reported,–,–,–
COc1ccnc(C[S+]([O-])c2nc3ccc(OC(F)F)cc3[nH]2)c1OC (centres undefined) [PANTOPRAZOLE],no drug-induced liver injury reported,no drug-induced liver injury reported,drug-induced liver injury reported,–,–,–
COC(=O)[C@H](c1ccccc1Cl)N1CCc2sccc2C1 [CLOPIDOGREL],–,–,–,no drug-induced liver injury reported,drug-induced liver injury reported,drug-induced liver injury reported
